This note sets out measurements from patent US12624128B2, “Low molecular weight chondroitin sulfate, composition, preparation method and use thereof” (NANJING HANXIN PHARMACEUTICAL TECHNOLOGY CO., LTD., priority 2019, dated 2026).

In experiment [1] the test system is osteoporosis rats. Nature of the experiment: Femoral ash level, osteoporosis rats (Example 24). Type of experiment: in vivo. As to conditions: male rats; CSO high, medium and low dose (15, 7.5, 3.8 mg/kg)+calcium acetate 158 mg/kg; compared with model group, P<0.01, P<0.05. The procedure: (§1) Ninety female SD rats weighing 200-220 g were used. The rats adapted to the environment for 3 d. Fasting but freely taking water for 24 h before surgery. Rats were injected intraperitoneally with 3% chloral hydrate and anesthetised. Ten […] were used as the sham-operated group with longitudinal incisions on the skin and muscle from both sides of the lumbar and dorsal spine without removing the ovaries. For the other animals, longitudinal incisions were made from both sides of the lumbar and dorsal spine to cut the skin and muscle, and both ovaries were removed, and the wounds were sutured. All animals were intramuscular injected with penicillin for 3 consecutive days after operation. (Male rats were operated with the same method to remove testicles).
(§2) On the second day after surgery, ovariectomized rats were randomly divided into 8 groups with […] in each group:
(§3) On the second day after surgery, rats were given by intragastric administration with an administration volume of 0.2 mL/100 g. The sham-operated group and model group were given in the same volume of normal saline. […]
(§4) The rats were sacrificed, and the femur on both sides was separated. The right femur was taken and measured for the following indexes: bone weight coefficient (g/100 g body weight), bone density, ash level, bone calcium or bone phosphorus, bone hydroxyproline, HE pathology. […]

The test system of experiment [2] is osteoporosis rats. Nature of the experiment: Bone phosphorus level, osteoporosis rats (Example 24). Type of experiment: in vivo. As to conditions: male rats; CSO low-dose (3.8 mg/kg)+calcium acetate 158 mg/kg; compared with model group, P<0.05, P<0.01. The procedure:
as §1, §2, §3, §4

For the compound `CC(=O)[O-].CC(=O)[O-].[Ca+2]` [Ca, Calcium acetate], the “level of femoral ashes” value with osteoporosis rats [1] is “significantly increased”. In addition, in the experiment with osteoporosis rats [2], the bone phosphorus level entry was “significantly increased”.
